Measurements as given in patent US20050227337A1, “Method for producing ascorbic acid intermediates” (priority 1998, published 2005).

Assays:
[1] = system: reductase and glucose dehydrogenase (GDH); assay: NADPH/NADP+ ratio in cofactor recycling reaction (absorbance at 340 nm); format: biochemical; details: final concentration 0.5 M NaCl; room temperature, pH 7
Description: Therefore, if the two cofactors are mixed together, the amount of NADPH present can be determined by the absorbance at 340 nm. If the amount of NADP+ originally added is also known, the ratio of the two cofactors can then be easily determined. This method can be used to measure how the addition of various components to a reaction, such as a cofactor recycling reaction, affects the reaction equilibrium.
A 1 ml reaction was set up in a cuvette at room temperature. The reaction consisted of buffer (50 mM bis-tris, pH 7), 5 mg glucose, 5 mg 2,5-DKG, 100 uM NADPH, 100 uM NADP+, reductase and glucose dehydrogenase (GDH). The enzymes were added last to initiate the reaction, and the cofactor levels were monitored at 340 nm. After equilibrium was reached (FIG. 7), an additional aliquot of GDH was added. Very quickly the equilibrium shifted to favor more NADPH being present. Addition of more GDH gave the same response.
Another 1 ml incubation was set up as above. After it reached equilibrium, 29 mg of NaCl was added to it to give a final concentration of 0.5 M NaCl.

[2] = system: 2-keto-D-gluconate dehydrogenase; details: reported by Shinagawa and Ameyama (1982); cited from earlier work
[3] = system: D-gluconic acid dehydrogenase; assay: D-gluconic acid dehydrogenase activity in permeabilized cells with methanol (product formation, HPLC); format: biochemical, P. citrea; details: permeabilized cells with 15% MeOH and gluconic acid
Description: (§1) 400 ml of P. citrea cells having a mutation in the naturally occurring membrane bound GDH was grown to 80 OD (600 nm) in 10 g/L gluconate, and mixed with 16 ml of a mixture of 10% toluene and 90% acetone for 3 minutes at 22 C. The permeabilized cells were then centrifuged for 10 minutes at 9000 rpm, and the resulting cell pellet was washed with 400 ml of 50 mM tris, pH 7. The washings were repeated twice more to ensure removal of residual organic solvent.
(§2) Permeabilized cells were incubated with 15% MeOH and gluconic acid.

[4] = system: 2-keto-D-gluconic acid dehydrogenase; assay: 2-keto-D-gluconic acid dehydrogenase activity in permeabilized cells with methanol (product formation, HPLC); format: biochemical, P. citrea; details: permeabilized cells with 15% MeOH and gluconic acid
Description: as §1, §2

GDH from T. acidophilum = molecular target: T1, GDH from T. acidophilum (Thermoplasma acidophilum, UniProt P13203); assay: GDH activity in the presence of methanol; format: biochemical; details: incubated with 10% methanol; 50 mM Tris, pH 7
T1 construct: purchased Sigma
T1 sequence (P13203 1-361): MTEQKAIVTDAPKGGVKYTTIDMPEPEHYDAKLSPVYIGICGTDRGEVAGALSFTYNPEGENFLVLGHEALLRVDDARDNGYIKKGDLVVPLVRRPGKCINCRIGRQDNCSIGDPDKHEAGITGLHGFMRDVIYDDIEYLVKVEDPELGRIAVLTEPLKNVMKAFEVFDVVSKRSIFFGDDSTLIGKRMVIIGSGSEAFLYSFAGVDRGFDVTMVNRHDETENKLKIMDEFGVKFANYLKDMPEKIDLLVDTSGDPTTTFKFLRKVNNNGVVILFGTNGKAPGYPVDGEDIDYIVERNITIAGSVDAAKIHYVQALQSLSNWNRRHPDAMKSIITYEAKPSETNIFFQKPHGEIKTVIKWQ

For `[Cl-].[Na+]` [NaCl, sodium chloride], the “shift of NADPH/NADP+ equilibrium” value [1] was “dramatically shifted the equilibrium to favor the presence of NADPH”.

For `O=C(O)CC(O)(CC(=O)O)C(=O)O` [citrate], the “effect on 2-keto-D-gluconate dehydrogenase” value [2] is listed as “inhibit”.

In the case of `CO` [methanol], the “activity of D-gluconic acid dehydrogenase” value [3] is reported as “not significantly affected”, the “activity of 2-keto-D-gluconic acid dehydrogenase” value [4] is reported as “not significantly affected” and the GDH activity (GDH from T. acidophilum) is reported as “small decrease in activity”.

For `O=C(O)CCC(=O)O` [succinate], the “effect on 2-keto-D-gluconate dehydrogenase” value [2] is given as “inhibit”.
